Data from patent US20130217640A1 (priority 2010, published 2013).
≈ marks a conversion by molar mass, not a printed value.

Key:
[1] = Solution stability study at three pD's in phosphate buffered D2O, monitored by 1H NMR; format: physicochemical; settings: 23° C.; for stability in solution (in words): pD 5.0, 6.0 and 7.0, phosphate buffered D2O, protected from light; for change in 1H NMR spectra: after 167 days, pD 5.0, 6.0, 7.0 in D2O
Description: 10 mL (11.07 g) D2O was placed in 3 separate vials with a stir bar and 0.002 moles (0.272 g) monobasic potassium phosphate (KH2PO4) was added to each. With the pD metered, NaOD/D2O was added drop-wise to each to adjust the pD's to 5.0, 6.0, and 7.0. Each of these solutions was gently boiled before use. Thus each vial contained […] phosphate buffered solution. […] The sample was sterilized by heating for 10 seconds, and after it had cooled down to ambient temperature (about 1 minute), 0.3 mL of one of the 0.2 mM 3 buffered solutions was added. The 0.6 mL sample was then placed in a sterilized NMR tube and the tube sealed and labeled. Each of the samples was stored at 23° C. protected from the light and monitored by ^1H NMR (64 scans for each sample) periodically.

[2] = Water solubility of the analogs (saturated D2O solution, 1H NMR against DSS standard); format: physicochemical; settings: for water solubility (in words): D2O, Table 1
Description: The method use involved stirring the sample in D2O for a period of 3 days, followed by filtration using a 0.2μ syringe filter. A measured volume of this saturated solution was diluted with a standard solution of DSS in D2O, and a ^1H NMR was taken. Integration of the DSS peaks compared to that of the analog would allow for the determination of its concentration, and thus the concentration of the saturated solution.

[3] = Pharmacokinetics after intravenous administration: pro-drug and released acetaminophen in plasma or blood; format: in vivo, male Sprague-Dawley rats; settings: for half-life: male, Sprague-Dawley, plasma, 66.3 umol/kg, read-out: half life (t1/2) of the pro-drug; for half-life / half-life of the pro-drug (in words) / AUC of the pro-drug (in words): target dose 66.3 μmol/Kg, Table 4

For `CC(=O)Nc1ccc(O[C@@H]2C=C[C@H](O)[C@@H](CO)O2)cc1` [Compound 1, N-(4-((2R,5S,6R)-5-hydroxy-6-(hydroxymethyl)-5,6-dihydro-2H-pyran-2-yloxy)phenyl)acetamide, reference compound], the “stability in solution (in words)” value [1] was “least stable to all of the pD's”.

With `CC(=O)Nc1ccc(O[C@H]2O[C@H](CO)[C@@H](OC3O[C@H](CO)[C@@H](O)[C@H](O)[C@H]3O)[C@H](O)[C@@H]2O)cc1` (stereo partly drawn) [Compound 5, 1-(4-acetaminophenoxy) 2-epi maltose] the “water solubility (in words)” value [2] was “highest solubility of all of the analogs” and the “change in 1H NMR spectra” value [1] was “no change”.

With `CC(=O)Nc1ccc(O[C@H]2O[C@H](CO)[C@@H](O)[C@H](O)[C@@H]2O)cc1` [Compound 8, N-(4-((2R,3S,4S,5S,6R)-3,4,5-trihydroxy-6-(hydroxymethyl)tetrahydro-2H-pyran-2-yloxy)phenyl)acetamide] the “change in 1H NMR spectra” value [1] was “no change”, the half-life ([3]; rat, intravenous) was less than 1 h and the “half-life of the pro-drug (in words)” value ([3]; rat, intravenous) was “relatively high half-lives”.

For `CC(=O)Nc1ccc(O[C@@H]2CC[C@H](O)[C@@H](CO)O2)cc1` [Compound 12, 1-(4′-acetamidophenoxy) 2,3-dideoxy glucose], the “stability in solution (in words)” value [1] was “showing a lot of instability”.

For `CC(=O)Nc1ccc(O[C@H]2O[C@H](COC(C)=O)[C@@H](O)[C@H](O)[C@@H]2O)cc1` [Compound 15], the half-life ([3]; rat, intravenous) was less than 1 h, the “AUC of acetaminophen released by the pro-drug (in words)” value ([3]; rat, intravenous, Table 5) was “largest AUC value of all of the pro-drugs” and the “AUC of the pro-drug (in words)” value ([3]; rat, intravenous) was “low values for AUC”. For the same compound, the “overall characteristics (water solubility, release of acetaminophen, AUC)” value ([3]; summary statement) was “best combination of water solubility, quick release of the acetaminophen, and AUC”.

With `CCCC(=O)OC[C@H]1O[C@H](Oc2ccc(NC(C)=O)cc2)C=C[C@@H]1O` [Compound 16, 1-(4′-acetamidophenoxy)-6-O-butyryl-2,3-dideoxy 2,3-didehydro glucose] the “water solubility (in words)” value [2] was “excellent solubility”.

In the case of `CCCC(=O)OC[C@H]1O[C@H](Oc2ccc(NC(C)=O)cc2)[C@@H](O)[C@@H](O)[C@@H]1O` [Compound 18, 1-(4′-acetamidophenoxy)-6-O-butyrylmannose], the half-life ([3]; rat, intravenous) is reported as less than 1 h and the “AUC of the pro-drug (in words)” value ([3]; rat, intravenous) is reported as “low values for AUC”.

In the case of `CC(=O)Nc1ccc(O[C@H]2O[C@H](COC(=O)C(C)C)[C@@H](O)[C@H](O)[C@@H]2O)cc1` [Compound 19, 1-(4′-acetamidophenoxy)-6-O-isobutyrylmannose], the half-life ([3]; rat, intravenous) is reported as less than 1 h and the “AUC of the pro-drug (in words)” value ([3]; rat, intravenous) is reported as “low values for AUC”.

With `CC(=O)Nc1ccc(O[C@H]2O[C@H](COC(=O)CCC(=O)O)[C@@H](O)[C@H](O)[C@@H]2O)cc1` [Compound 20] the “AUC of the pro-drug (in words)” value ([3]; rat, intravenous) was “high AUC values” and the “half-life of the pro-drug (in words)” value ([3]; rat, intravenous) was “relatively high half-lives”.

With `CC(=O)Nc1ccc(O[C@H]2O[C@H](C)[C@@H](O)[C@H](O)[C@@H]2O)cc1` [Compound 23, 1-(4′-acetamidophenoxy)-6-deoxymannose] the “AUC of the pro-drug (in words)” value ([3]; rat, intravenous) was “high AUC values” and the “half-life of the pro-drug (in words)” value ([3]; rat, intravenous) was “relatively high half-lives”.

For `CC(=O)Nc1ccc(O)cc1` [acetaminophen, reference compound], the water solubility ([2]; stirred in D2O for 3 days, filtered 0.2μ, 1H NMR integration vs DSS) was 13 mg/mL (≈ 86 mM) and the “change in 1H NMR spectra” value [1] was “no change”.
